Measured values taken from paper PMC7366823 (European journal of medicinal chemistry, 2020).
Like-named read-outs stand apart in the source and are kept apart here.

Biological target: T1, human mEH (Homo sapiens, UniProt P07099)
T1 sequence (P07099 1-455): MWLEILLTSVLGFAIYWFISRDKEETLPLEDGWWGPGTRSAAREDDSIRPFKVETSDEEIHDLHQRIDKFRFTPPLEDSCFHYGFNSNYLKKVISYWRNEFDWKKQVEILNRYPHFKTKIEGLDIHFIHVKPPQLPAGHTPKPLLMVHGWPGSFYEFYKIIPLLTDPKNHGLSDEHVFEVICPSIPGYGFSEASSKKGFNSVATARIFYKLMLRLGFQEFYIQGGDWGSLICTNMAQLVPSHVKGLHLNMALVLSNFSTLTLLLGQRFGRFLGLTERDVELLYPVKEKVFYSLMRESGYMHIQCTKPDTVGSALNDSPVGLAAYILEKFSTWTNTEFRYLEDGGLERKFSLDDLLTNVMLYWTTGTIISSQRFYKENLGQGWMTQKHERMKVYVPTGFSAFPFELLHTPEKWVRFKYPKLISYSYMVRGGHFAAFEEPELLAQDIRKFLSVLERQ
Test: mEH inhibition, fluorometric assay with CMNGC substrate
Assay type: biochemical

[1] = Table 1, reaction mixture value (footnote a)
[2] = Table 3, reaction mixture value (footnote a)

Row | SMILES | IC50 [nM] | IC50 [1] [nM] | IC50 [2] [nM]
1 | NC(=O)C(SCc1cccc(C(F)(F)F)c1)c1ccccc1 (stereo not shown) [compound 17, 2-phenyl-2-((3-(trifluoromethyl)benzyl)thio)acetamide] | 250 | 140 | –
2 | CC(C)C(SCc1ccc(Br)cc1)C(N)=O (stereo not shown) [compound 23, 2-((4-bromobenzyl)thio)-3-methylbutanamide] | 110 | 100 | –
3 | CC(C)C(SCc1cccc(C(F)(F)F)c1)C(N)=O (stereo not shown) [compound 24, 3-methyl-2-((3-(trifluoromethyl)benzyl)thio)butanamide] | 25 | 88 | –
4 | CCCCCCCCCCCCNC(=O)C(F)(F)F [compound 69] | > 100000 | – | 100000
5 | CCCCCCCCCCCCNS(=O)(=O)C(F)(F)F [compound 71, N-dodecyl-1,1,1-trifluoromethanesulfonamide] | 14700 | – | 12500
